In the supplement of paper PMC10307832:

Experiments:
Assay in all cases: relative viability (nuclei count vs DMSO), 5 days (fraction); higher = more cells survive
[1] = compound: CCn1c(-c2nonc2N)nc2c(C#CC(C)(C)O)ncc(OC[C@H]3CCCNC3)c21 + N=C(N)NC(=N)NCCc1ccccc1 [Phenformin] (partner 250 µM)
Outline: (§1)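 Lung cancer cell lines in 1536-well plates were dosed by pin tool the day after seeding, either with one drug alone or with a fixed anchor-drug dose plus five library-drug doses (not always all listed) in √10 steps. After 5 days, cells were fixed and their nuclei stained in one step (final 0.05% Triton X-100, 1% formaldehyde, 1 ug/ml Hoechst), then counted on 4× images. Relative viability is the nuclei count in treated wells divided by that in vehicle wells. Values are medians of duplicate plates.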

BAM7 + Pictilisib = compound: CCOC1=CC=CC=C1N=NC2=C(NN(C2=O)C3=NC(=CS3)C4=CC=CC=C4)C [BAM7] + CS(=O)(=O)N1CCN(Cc2cc3nc(-c4cccc5[nH]ncc45)nc(N4CCOCC4)c3s2)CC1 [Pictilisib] (partner 1 µM)
Outline: as §1

BAM7 + Trametinib = compound: CCOC1=CC=CC=C1N=NC2=C(NN(C2=O)C3=NC(=CS3)C4=CC=CC=C4)C [BAM7] + CC(=O)Nc1cccc(-n2c(=O)n(C3CC3)c(=O)c3c(Nc4ccc(I)cc4F)n(C)c(=O)c(C)c32)c1 [Trametinib] (partner 0.02 µM)
Outline: as §1

BAM7 + AZD7762 = compound: CCOC1=CC=CC=C1N=NC2=C(NN(C2=O)C3=NC(=CS3)C4=CC=CC=C4)C [BAM7] + NC(=O)Nc1cc(-c2cccc(F)c2)sc1C(=O)N[C@H]1CCCNC1 [AZD7762] (partner 0.2 µM)
Outline: as §1

Row | Cell Line | relative viability ([1]; first compound 0.01 µM) | relative viability ([1]; first compound 0.03162 µM) | relative viability ([1]; first compound 0.1 µM) | relative viability ([1]; first compound 0.3162 µM) | relative viability ([1]; first compound 1 µM) | relative viability (BAM7 + Pictilisib; first compound 0.5 µM) | relative viability (BAM7 + Pictilisib; first compound 5 µM) | relative viability (BAM7 + Pictilisib; first compound 15.81 µM) | relative viability (BAM7 + Pictilisib; first compound 50 µM) | relative viability (BAM7 + Trametinib; first compound 0.5 µM) | relative viability (BAM7 + Trametinib; first compound 5 µM) | relative viability (BAM7 + Trametinib; first compound 15.81 µM) | relative viability (BAM7 + Trametinib; first compound 50 µM) | relative viability (BAM7 + AZD7762; first compound 0.5 µM) | relative viability (BAM7 + AZD7762; first compound 5 µM) | relative viability (BAM7 + AZD7762; first compound 15.81 µM) | relative viability (BAM7 + AZD7762; first compound 50 µM)
1 | NCI-H727 | 0.468 | 0.461 | 0.618 | 0.515 | 0.502 | 0.414 | 0.545 | 0.387 | 0.31 | 0.413 | 0.414 | 0.393 | 0.386 | 0.586 | 0.675 | 0.678 | 0.41
2 | H3255 | 0.403 | 0.406 | 0.342 | 0.338 | 0.329 | 0.544 | 0.652 | 0.568 | 0.579 | 0.539 | 0.607 | 0.507 | 0.555 | 0.831 | 0.838 | 0.73 | 0.847
3 | NCI-H1437 | 0.331 | 0.34 | 0.293 | 0.239 | 0.306 | 0.722 | 0.434 | 0.318 | 0.63 | 0.415 | 0.396 | 0.394 | 0.414 | 1.1 | 1.11 | 0.945 | 1.02
4 | LU99A | 0.847 | 0.839 | 0.774 | 0.748 | 0.837 | 0.32 | 0.315 | 0.398 | 0.353 | 0.54 | 0.548 | 0.552 | 0.575 | 0.371 | 0.438 | 0.35 | 0.293
5 | HCC-827 | 0.395 | 0.37 | 0.388 | 0.402 | 0.402 | 0.969 | 0.908 | 0.877 | 0.977 | 0.535 | 0.548 | 0.591 | 0.556 | 0.199 | 0.201 | 0.284 | 0.182
6 | LK-2 | 0.515 | 0.392 |  |  | 0.455 | 0.595 | 0.663 | 0.598 | 0.546 | 0.737 | 0.945 | 0.811 | 0.841 | 0.407 | 0.472 | 0.515 | 0.404
7 | HCC-366 | 0.573 | 0.606 | 0.637 | 0.62 | 0.617 | 0.163 | 0.163 | 0.141 | 0.0939 | 0.328 | 0.373 | 0.294 | 0.356 | 0.173 | 0.19 | 0.191 | 0.186
8 | BEN | 0.276 | 0.292 | 0.28 | 0.297 | 0.287 | 0.611 | 0.642 | 0.518 | 0.59 | 1.04 | 1.1 | 0.851 | 1.05 | 0.689 | 0.802 | 0.939 | 0.74
9 | NCI-H23 | 0.729 | 0.783 | 0.817 | 0.8 | 0.781 | 0.55 | 0.52 | 0.499 | 0.542 | 0.314 | 0.423 | 0.389 | 0.462 | 0.165 | 0.35 | 0.287 | 0.255
10 | NCI-H1395 | 0.417 | 0.416 | 0.418 | 0.376 | 0.388 | 0.612 | 0.714 | 0.702 | 0.683 | 0.972 | 1.28 | 0.946 | 1.06 | 0.395 | 0.407 | 0.394 | 0.421
11 | 201T | 0.455 | 0.438 | 0.437 | 0.435 | 0.431 | 0.637 | 0.625 | 0.593 | 0.69 | 0.742 | 0.738 | 0.71 | 0.708 | 0.705 | 0.688 | 0.715 | 0.678
12 | NCI-H2170 | 0.44 | 0.429 | 0.416 | 0.429 | 0.382 | 0.268 | 0.3 | 0.271 | 0.314 | 0.917 | 0.799 | 0.814 | 0.816 | 0.652 | 0.691 | 0.614 | 0.804
13 | NCI-H460 | 0.518 | 0.561 | 0.523 | 0.495 | 0.541 | 0.439 | 0.485 | 0.411 | 0.381 | 0.0937 | 0.124 | 0.145 | 0.13 | 0.595 | 0.751 | 0.494 | 0.571
14 | HCC-15 | 0.439 | 0.502 | 0.456 | 0.395 | 0.404 | 0.818 | 0.802 | 0.764 | 0.747 | 0.341 | 0.374 | 0.331 | 0.384 | 1.29 | 1.24 | 1.06 | 1.21
15 | LCLC-103H | 0.323 | 0.355 | 0.33 | 0.329 | 0.327 | 0.611 | 0.654 | 0.604 | 0.687 | 0.664 | 0.706 | 0.69 | 0.684 | 0.825 | 0.88 | 0.725 | 0.781
16 | NCI-H441 | 0.824 | 0.888 | 0.833 | 0.801 | 0.715 | 0.433 | 0.47 | 0.528 | 0.519 | 0.522 | 0.518 | 0.498 | 0.496 | 1.35 | 1.46 | 0.888 | 1.12
17 | EPLC-272H | 0.275 | 0.333 | 0.32 | 0.291 | 0.255 | 0.358 | 0.327 | 0.323 | 0.347 | 0.292 | 0.31 | 0.252 | 0.28 | 0.23 | 0.301 | 0.226 | 0.289
